Converted amounts (≈) assume the structure as drawn. Read-outs that look alike come from different tables or passages of the source.
How the values were obtained:
Format in all cases: cell-based
[1] = test system: colistin resistant MCR (+) E. Coli strains; experiment: MIC, broth microdilution, compound alone; conditions: compound alone
Protocol: (§1) MIC experiments of the antimicrobial agents were determined by a modified broth microdilution method in accordance with the Clinical and Laboratory Standards Institute (CLSI) guidelines using 96 well culture plates. In brief, serial dilutions of all plates were prepared at different concentrations (μg). The inoculum suspension was prepared by adding isolated colonies from a 18-20 hours on TSA plate into phosphate buffer (0.31 mM, pH 7.2) or in water for injection (BBraun) and adjusting the suspension to a turbidity equivalent to 0.5 McFarland Standard. Each well contained a final bacterial concentration of approximately 5×10^5 colony forming units (CFU)/mL. The plate was covered and incubated at 35° C. for 24 hours. […] For the microdilution plates, turbidity in wells can be measured at OD600 using TECAN infinite M200Pro. MIC was determined as […] concentration that gives a 99 percent inhibition.

[2] = test system: colistin resistant MCR (−) E. Cloacae strain 7023456439; experiment: MIC, broth microdilution, compound alone; conditions: strain 7023456439 E. Cloacae
Protocol: as §1

[3] = test system: colistin resistant MCR (−) E. Coli strains; experiment: MIC, broth microdilution, compound alone
Protocol: as §1

[4] = test system: colistin resistant MCR (+) E. Coli strains; experiment: Synergy study: colistin MIC in the presence of compound
Protocol: (§2) The MICs of the individual drugs and LC compound in combinations were determined using the broth microdilution technique as recommended by the CLSI whereby the two anti-microbial agents were added in an equal amount. (e.g.: 50 μL of Colistin: 50 μL of LC compounds). Diluted media containing compounds and antibiotics will be serially diluted 2-fold, and LC compounds and antibiotics alone or in combination will be assayed at fixed synergy concentration. In all cases, the lowest concentration at which no visible growth occurred was be recorded to be the MIC value of individual and combined antibacterial agents. The results were obtained after 24 hours of incubation.

[5] = test system: colistin resistant MCR (−) E. Cloacae strain 7023456439; experiment: as above; conditions: strain 7023456439 E. Cloacae
Protocol: as §2

[6] = test system: colistin resistant MCR (−) E. Coli strains; experiment: as above
Protocol: as §2

[7] = compound at 10 μg (Table 2a: 10 ug/ml)
[8] = strain 6083672926, MCR(−), compound at 10 μg (Table 2a: 10 ug/ml)
[9] = strain 7023446108, MCR(−), compound at 10 μg (Table 2a: 10 ug/ml)
[10] = strain 7033607097, MCR(−), compound at 10 μg (Table 2a: 10 ug/ml)
[11] = compound at 5 μg (Table 2a: 5 ug/ml)
[12] = strain 6083672926, MCR(−), compound at 5 μg (Table 2a: 5 ug/ml)
[13] = strain 7023446108, MCR(−), compound at 5 μg (Table 2a: 5 ug/ml)
[14] = strain 7033607097, MCR(−), compound at 5 μg (Table 2a: 5 ug/ml)

Compound | MIC ([1]; strain 6083655967, MCR (+)) [µg/mL] | MIC ([1]; strain 6103645107, MCR (+)) [µg/mL] | MIC ([1]; strain 6123520276, MCR (+)) [µg/mL] | MIC ([1]; strain 7013177695, MCR (+)) [µg/mL] | MIC ([1]; strain 7023436560, MCR (+)) [µg/mL] | MIC ([1]; strain 7023444207, MCR (+)) [µg/mL] | MIC ([3]; strain 6083672926, MCR (−)) [µg/mL] | MIC ([3]; strain 7033607097, MCR (−)) [µg/mL] | MIC ([1]; strain 6075066346, MCR (+)) [µg/mL] | MIC [2] [µg/mL] | MIC ([3]; strain 7023446108, MCR (−)) [µg/mL] | Colistin MIC in the presence of the compound [5, 7] [µg/mL] | Colistin MIC in the presence of the compound [6, 8] [µg/mL] | Colistin MIC in the presence of the compound [6, 9] [µg/mL] | Colistin MIC in the presence of the compound [6, 10] [µg/mL] | Colistin MIC in the presence of the compound [5, 11] [µg/mL] | Colistin MIC in the presence of the compound [6, 12] [µg/mL] | Colistin MIC in the presence of the compound [6, 13] [µg/mL] | Colistin MIC in the presence of the compound [6, 14] [µg/mL] | other results
O=C(O)CN(CCN(CC(=O)O)CC(=O)O)CC(=O)O [EDTA, Ethylenediaminetetraacetic acid, reference compound] | >250 | >250 | >250 | >250 | >250 | >250 | >250 | >250 | – | – | – | – | – | – | – | – | – | – | – | MIC ([1]; Escherichia coli, strain 6075066346, MCR (+), read-out: MIC): > 250 µg/mL; MIC ([2]; Enterobacter cloacae, read-out: MIC): > 250 µg/mL; MIC ([3]; Escherichia coli, strain 7023446108, MCR (−), read-out: MIC): > 250 µg/mL; concentration at which the compound shows synergy with colistin ([4]; against mcr-1 bacteria): higher than 250 μg/ml; Colistin MIC in the presence of the compound ([4]; strain 6083655967, MCR(+), compound at 250 ug/ml): 0.78 µg/mL; Colistin MIC in the presence of the compound ([4]; strain 6103645107, MCR(+), compound at 250 ug/ml): 0.39 µg/mL; Colistin MIC in the presence of the compound ([4]; strain 6123520276, MCR(+), compound at 250 ug/ml): 0.78 µg/mL; Colistin MIC in the presence of the compound ([4]; strain 7013177695, MCR(+), compound at 250 ug/ml): 0.78 µg/mL; Colistin MIC in the presence of the compound ([4]; strain 7023436560, MCR(+), compound at 250 ug/ml): 0.39 µg/mL; Colistin MIC in the presence of the compound ([5]; compound at 250 ug/ml): 3.125 µg/mL; Colistin MIC in the presence of the compound ([6]; strain 6083672926, MCR(−), compound at 250 ug/ml): 0.78 µg/mL; Colistin MIC in the presence of the compound ([6]; strain 7023446108, MCR(−), compound at 250 ug/ml): 0.39 µg/mL; Colistin MIC in the presence of the compound ([6]; strain 7033607097, MCR(−), compound at 250 ug/ml): 0.195 µg/mL
CN(C)CCCN(CCCCOc1ccc(C2COc3c(ccc4c3C=CC(C)(C)O4)C2)c(OCCCCN(CCCN(C)C)CCCN(C)C)c1)CCCN(C)C (centres unmarked) [LC095] | 50 (≈ 61.9 µM) | 25 (≈ 31 µM) | 50 (≈ 61.9 µM) | 25 (≈ 31 µM) | 25 (≈ 31 µM) | 25 (≈ 31 µM) | 25 (≈ 31 µM) | 25 (≈ 31 µM) | 50 (≈ 61.9 µM) | >50 | 25 (≈ 31 µM) | >12.5 | 12.5 | 3.125 | 3.125 | – | – | – | – | Colistin MIC in the presence of the compound ([4]; strain 6075066346, MCR(+), compound at 10 μg (Table 2a: 10 ug/ml)): 3.125 µg/mL; Colistin MIC in the presence of the compound ([4]; strain 6083655967, MCR(+), compound at 10 μg (Table 2a: 10 ug/ml)): 3.125 µg/mL; Colistin MIC in the presence of the compound ([4]; strain 6103645107, MCR(+), compound at 10 μg (Table 2a: 10 ug/ml)): 3.125 µg/mL; Colistin MIC in the presence of the compound ([4]; strain 6123520276, MCR(+), compound at 10 μg (Table 2a: 10 ug/ml)): 1.56 µg/mL; Colistin MIC in the presence of the compound ([4]; strain 7013177695, MCR(+), compound at 10 μg (Table 2a: 10 ug/ml)): 3.125 µg/mL; Colistin MIC in the presence of the compound ([4]; strain 7023436560, MCR(+), compound at 10 μg (Table 2a: 10 ug/ml)): 3.125 µg/mL; Colistin MIC in the presence of the compound ([4]; strain 7023444207, MCR(+), compound at 10 μg (Table 2a: 10 ug/ml)): 1.56 µg/mL
CN(C)CCCN(C)CCCCOc1ccc(C2COc3c(ccc4c3C=CC(C)(C)O4)C2)c(OCCCCN(C)CCCN(C)C)c1 (centres unmarked) [LC096] | 25 (≈ 37.6 µM) | 12.5 (≈ 18.8 µM) | 25 (≈ 37.6 µM) | 25 (≈ 37.6 µM) | 25 (≈ 37.6 µM) | 25 (≈ 37.6 µM) | 12.5 (≈ 18.8 µM) | 12.5 (≈ 18.8 µM) | 25 (≈ 37.6 µM) | >25 | 25 (≈ 37.6 µM) | – | – | – | – | >25 | <0.195 | <0.195 | <0.195 | Colistin MIC in the presence of the compound ([4]; strain 6075066346, MCR(+), compound at 5 μg (Table 2a: 5 ug/ml)): <0.195 µg/mL; Colistin MIC in the presence of the compound ([4]; strain 6083655967, MCR(+), compound at 5 μg (Table 2a: 5 ug/ml)): <0.195 µg/mL; Colistin MIC in the presence of the compound ([4]; strain 6103645107, MCR(+), compound at 5 μg (Table 2a: 5 ug/ml)): <0.195 µg/mL; Colistin MIC in the presence of the compound ([4]; strain 6123520276, MCR(+), compound at 5 μg (Table 2a: 5 ug/ml)): <0.195 µg/mL; Colistin MIC in the presence of the compound ([4]; strain 7013177695, MCR(+), compound at 5 μg (Table 2a: 5 ug/ml)): <0.195 µg/mL; Colistin MIC in the presence of the compound ([4]; strain 7023436560, MCR(+), compound at 5 μg (Table 2a: 5 ug/ml)): <0.195 µg/mL; Colistin MIC in the presence of the compound ([4]; strain 7023444207, MCR(+), compound at 5 μg (Table 2a: 5 ug/ml)): <0.195 µg/mL
CC[N+](CC)(CC)CCCCOc1ccc(/C=C/C(=O)c2ccc(OCCCC[N+](CC)(CC)CC)c(CC=C(C)C)c2O)cc1 [LC315] | 6.25 | 6.25 | 12.5 | 12.5 | 6.25 | 12.5 | 25 | 12.5 | 6.25 | >50 | 12.5 | – | – | – | – | >12.5 | <0.0975 | <0.0975 | <0.0975 | –
CC[N+](CC)(CC)CCCCOc1ccc(C2COc3c(ccc4c3C=CC(C)(C)O4)C2)c(OCCCC[N+](CC)(CC)CC)c1 (centres unmarked) [LC317] | 50 | 50 | >50 | 50 | 50 | 50 | >50 | >50 | 50 | >50 | 50 | >12.5 | 1.56 | 1.56 | 1.56 | – | – | – | – | –
Cc1cc(OCCCCN(Cc2ccccn2)Cc2ccccn2)cc(OCCCCN(Cc2ccccn2)Cc2ccccn2)c1.[Cl][Zn][Cl].[Cl][Zn][Cl] [Orc-DPA-Zn] | 50 | >50 | 50 | 50 | 50 | 50 | 50 | 50 | 50 | >50 | 50 | – | – | – | – | – | – | – | – | Colistin MIC in the presence of the compound ([5]; compound at 50 ug/ml): <0.195 µg/mL; Colistin MIC in the presence of the compound ([6]; strain 6083672926, MCR(−), compound at 50 ug/ml): <0.195 µg/mL; Colistin MIC in the presence of the compound ([6]; strain 7023446108, MCR(−), compound at 50 ug/ml): <0.195 µg/mL; Colistin MIC in the presence of the compound ([6]; strain 7033607097, MCR(−), compound at 50 ug/ml): <0.195 µg/mL

Reference: patent publication US12473250B2, “Molecular design of new antibiotics and antibiotic adjuvants against MCR strains” (priority 2019, dated 2025)
